Measurements as given in US20240109865A1, “INDAZOLE COMPOUNDS AS KINASE INHIBITORS” (TYRA BIOSCIENCES, INC., priority 2020, published 2024).

Columns and labels:
[1] = target: FGFR3-BAIAP2L1 Ba/F3 cells (Homo sapiens, UniProt P22607); assay: Ba/F3 cell viability assay (CellTiter-Glo 2.0), FGFR3-BAIAP2L1 Ba/F3; type: cell-based; conditions: for Ba/F3 FGFR1/FGFR3 Selectivity: FGFR3 > FGFR1 selectivity ratio in Ba/F3 FGFR fusion cell based assays; for IC50: read-out: Ba/F3 Cells FGFR3 (IC50 nM), FGFR3-BAIAP2L1 Ba/F3 cells, 48 hours, Cell Titer Glo 2.0
Sequence of FGFR3-BAIAP2L1 Ba/F3 cells (P22607 23-806 limits assumed, change not shown): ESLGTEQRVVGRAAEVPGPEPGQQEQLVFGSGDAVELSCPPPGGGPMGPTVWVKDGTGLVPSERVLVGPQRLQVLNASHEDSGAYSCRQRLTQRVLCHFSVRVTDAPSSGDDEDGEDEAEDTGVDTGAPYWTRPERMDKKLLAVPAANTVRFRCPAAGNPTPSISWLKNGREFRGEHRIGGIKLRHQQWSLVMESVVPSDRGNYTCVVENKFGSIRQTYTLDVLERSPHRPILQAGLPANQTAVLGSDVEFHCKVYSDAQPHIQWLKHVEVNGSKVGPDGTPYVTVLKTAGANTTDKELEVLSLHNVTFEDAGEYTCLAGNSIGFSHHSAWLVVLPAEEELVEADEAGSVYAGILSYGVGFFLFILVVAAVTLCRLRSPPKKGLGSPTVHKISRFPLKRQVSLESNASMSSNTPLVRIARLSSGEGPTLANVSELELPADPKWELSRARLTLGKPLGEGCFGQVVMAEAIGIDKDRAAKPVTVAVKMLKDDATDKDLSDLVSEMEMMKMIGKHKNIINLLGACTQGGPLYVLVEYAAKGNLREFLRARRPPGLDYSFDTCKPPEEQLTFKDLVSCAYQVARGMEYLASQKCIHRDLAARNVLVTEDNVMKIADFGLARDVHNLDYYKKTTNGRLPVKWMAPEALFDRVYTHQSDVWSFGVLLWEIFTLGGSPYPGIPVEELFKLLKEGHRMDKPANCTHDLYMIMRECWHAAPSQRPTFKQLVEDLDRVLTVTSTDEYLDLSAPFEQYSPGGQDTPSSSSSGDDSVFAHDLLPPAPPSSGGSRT
Method in brief: (§1)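 IL3-independent Ba/F3 lines driven by FGFR1-BCR or FGFR3-BAIAP2L1 fusions, in RPMI1640/10% FBS. 9-dose 10-fold series from 30 μM, triplicate, 48 h at 37 °C; viability by CellTiter-Glo 2.0 ATP luminescence relative to DMSO control, IC50 from 4-parameter sigmoidal fit.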

FGFR3 (V555M) = FGFR3 (V555M) (Homo sapiens (Human), UniProt P22607, V555M); assay: Kinase assay, binding constants (Kd), kinase-tagged T7 phage, qPCR; conditions: V555M mutant
Sequence of FGFR3 (V555M) (P22607 23-806 V555M): as the sequence (P22607 23-806 limits assumed, change not shown) above, with V533M counted along it
Method in brief: (§2)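 Competition binding: T7 phage-tagged kinase + biotin-ligand beads + compound (11 pts, 3-fold, 0.9% DMSO). Elution 30 min RT with free ligand; qPCR quantitation. Kd via Hill fit, slope −1.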

FGFR2 = FGFR2 (Homo sapiens (Human), UniProt P21802); assay: as above
Sequence of FGFR2 (P21802 22-821): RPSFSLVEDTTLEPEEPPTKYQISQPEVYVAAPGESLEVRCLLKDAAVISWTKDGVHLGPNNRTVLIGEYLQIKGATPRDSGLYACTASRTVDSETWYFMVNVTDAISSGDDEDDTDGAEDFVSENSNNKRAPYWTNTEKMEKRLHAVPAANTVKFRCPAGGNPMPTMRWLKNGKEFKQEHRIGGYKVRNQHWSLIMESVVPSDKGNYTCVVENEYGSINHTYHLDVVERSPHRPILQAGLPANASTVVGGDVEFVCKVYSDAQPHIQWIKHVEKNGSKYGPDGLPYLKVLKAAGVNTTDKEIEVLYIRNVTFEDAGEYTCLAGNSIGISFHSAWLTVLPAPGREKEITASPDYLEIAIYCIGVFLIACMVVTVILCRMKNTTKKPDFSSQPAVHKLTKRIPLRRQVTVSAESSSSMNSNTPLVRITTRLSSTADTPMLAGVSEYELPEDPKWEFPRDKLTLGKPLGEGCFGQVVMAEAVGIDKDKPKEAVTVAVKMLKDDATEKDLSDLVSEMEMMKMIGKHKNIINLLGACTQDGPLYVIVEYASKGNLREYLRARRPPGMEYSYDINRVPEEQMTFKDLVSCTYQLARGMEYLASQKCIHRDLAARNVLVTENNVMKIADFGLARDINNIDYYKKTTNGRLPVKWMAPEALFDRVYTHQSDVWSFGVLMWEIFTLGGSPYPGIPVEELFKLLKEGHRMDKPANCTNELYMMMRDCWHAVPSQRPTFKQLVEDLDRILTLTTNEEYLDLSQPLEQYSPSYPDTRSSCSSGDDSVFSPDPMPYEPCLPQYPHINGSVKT
Method in brief: as §2

FGFR1 = FGFR1 (Homo sapiens (Human), UniProt P11362); assay: as above
Sequence of FGFR1 (P11362 22-822): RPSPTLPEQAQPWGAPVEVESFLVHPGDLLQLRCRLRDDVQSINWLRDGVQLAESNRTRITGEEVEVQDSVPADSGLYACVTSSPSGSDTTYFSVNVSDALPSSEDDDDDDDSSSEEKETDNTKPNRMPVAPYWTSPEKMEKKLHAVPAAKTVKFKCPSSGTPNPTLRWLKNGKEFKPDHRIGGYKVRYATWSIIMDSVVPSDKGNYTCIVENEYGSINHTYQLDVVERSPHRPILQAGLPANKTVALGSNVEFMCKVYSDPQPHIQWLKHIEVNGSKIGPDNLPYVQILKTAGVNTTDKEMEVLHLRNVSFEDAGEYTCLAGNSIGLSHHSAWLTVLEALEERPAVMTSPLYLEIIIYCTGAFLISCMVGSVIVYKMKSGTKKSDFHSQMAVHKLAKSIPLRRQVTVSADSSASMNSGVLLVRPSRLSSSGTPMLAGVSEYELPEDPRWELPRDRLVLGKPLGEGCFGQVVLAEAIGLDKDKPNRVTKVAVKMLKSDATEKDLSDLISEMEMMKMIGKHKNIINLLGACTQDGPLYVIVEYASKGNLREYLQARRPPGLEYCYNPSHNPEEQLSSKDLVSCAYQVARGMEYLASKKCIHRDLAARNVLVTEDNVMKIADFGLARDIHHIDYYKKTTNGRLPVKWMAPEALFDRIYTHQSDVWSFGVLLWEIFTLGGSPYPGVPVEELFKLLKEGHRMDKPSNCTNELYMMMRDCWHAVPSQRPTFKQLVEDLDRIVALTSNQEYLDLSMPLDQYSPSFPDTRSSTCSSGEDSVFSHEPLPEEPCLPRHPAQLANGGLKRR
Method in brief: as §2

FGFR3 = FGFR3 (Homo sapiens (Human), UniProt P22607); assay: as above
Sequence of FGFR3 (P22607 23-806): as the sequence (P22607 23-806 limits assumed, change not shown) above
Method in brief: as §2

FGFR4 = FGFR4 (Homo sapiens (Human), UniProt P22455); assay: as above
Sequence of FGFR4 (P22455 22-802): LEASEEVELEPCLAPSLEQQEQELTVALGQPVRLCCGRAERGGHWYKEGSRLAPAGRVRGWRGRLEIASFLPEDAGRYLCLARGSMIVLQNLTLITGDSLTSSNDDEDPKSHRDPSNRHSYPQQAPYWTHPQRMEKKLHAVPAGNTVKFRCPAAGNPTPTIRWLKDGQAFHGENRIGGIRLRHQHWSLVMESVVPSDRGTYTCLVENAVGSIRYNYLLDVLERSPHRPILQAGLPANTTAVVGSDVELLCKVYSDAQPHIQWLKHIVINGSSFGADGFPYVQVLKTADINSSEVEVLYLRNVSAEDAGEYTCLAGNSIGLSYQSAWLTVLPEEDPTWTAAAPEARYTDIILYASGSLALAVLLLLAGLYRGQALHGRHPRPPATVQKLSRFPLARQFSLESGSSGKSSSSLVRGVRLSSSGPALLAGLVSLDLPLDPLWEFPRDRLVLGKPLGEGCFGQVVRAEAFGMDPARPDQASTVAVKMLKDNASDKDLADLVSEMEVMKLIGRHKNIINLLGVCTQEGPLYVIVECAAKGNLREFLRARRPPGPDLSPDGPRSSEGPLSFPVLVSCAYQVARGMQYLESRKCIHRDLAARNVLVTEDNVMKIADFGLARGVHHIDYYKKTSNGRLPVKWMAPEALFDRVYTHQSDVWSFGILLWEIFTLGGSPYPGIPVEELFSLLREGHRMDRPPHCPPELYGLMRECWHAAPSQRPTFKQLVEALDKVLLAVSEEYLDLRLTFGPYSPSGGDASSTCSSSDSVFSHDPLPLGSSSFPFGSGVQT
Method in brief: as §2

[2] = tested on: RT112/84 cells (FGFR3-fusion); assay: RT112/84 cancer cell line cell viability assay (CellTiter-Glo 2.0); type: cell-based; conditions: Homo sapiens, 72 hours, Cell Titer Glo 2.0
Source text: (§3) Experimental Purpose: To detect the change of intracellular ATP by Cell Titer-Glo® and to evaluate the inhibitory effect of the compounds on cancer cell lines by determining the in vitro IC50 value of the compounds.
(§4) Cell Titer-Glo® 2.0 Luminescent cell viability assay reagent was purchased from Promega (Madison, WI). RT112/84 and KG-1 cell lines were purchased from American Type Culture Collection (Manassas, VA). UM-UC-14 cell line was purchased from Sigma (St. Louis, MO). RT112/84, UM-UC-14, and KG-1 cells were cultured in RPMI1640 media supplemented with 10% fetal bovine serum. Cultures were maintained at 37° C. in a humidified atmosphere of 5% C02 and 95% air.
(§5) Cell Viability Assay Procedure: Cells were plated in 96-well clear bottom/white plates (Corning #3903) at 10,000 cells/well in 100 μl of media, incubated overnight. The next day, test compound DMSO stock solutions were made at 10 mM and 2 μM final concentration. Compounds were then added to cells in a 9-dose, 10-fold dilution series starting at 30 μM with an HP 300e Digital Dispenser (each dose was applied in triplicate). DMSO was backfilled to each well up to 301 nL total volume of test compound+DMSO, and a total of 301 nL DMSO was added to a control/no test compound well in triplicate. The cells in cell culture plates were incubated with the compounds at 37° C. and 5% C02 for 72 hours. Then 50 μl of Cell Titer Glo 2.0 reagent was added to each well of the cell culture plates. The contents were covered from light and mixed on an orbital shaker at room temperature for 10 min. Luminescence was recorded by a Synergy H1 Microplate Reader (Biotek, Winooski, VT). Cells were assessed as a percentage of DMSO only treated control cells. Curves were plotted and IC50 values were calculated using the GraphPad Prism 8 program based on a sigmoidal dose-response equation (4 parameter).

FGFR1-BCR Ba/F3 cells = FGFR1-BCR Ba/F3 cells (Homo sapiens, UniProt P11362); assay: Ba/F3 cell viability assay (CellTiter-Glo 2.0), FGFR1-BCR Ba/F3; type: cell-based; conditions: read-out: Ba/F3 Cells FGFR1 (IC50 nM), 48 hours, Cell Titer Glo 2.0
Sequence of FGFR1-BCR Ba/F3 cells (P11362 22-822 limits assumed, change not shown): as the sequence (P11362 22-822) above
Method in brief: as §1

[3] = tested on: KG-1 cells (FGFR1-fusion); assay: KG-1 cancer cell line cell viability assay (CellTiter-Glo 2.0); type: cell-based; conditions: Homo sapiens, 72 hours, Cell Titer Glo 2.0
Source text: as §3, §4, §5

| SMILES | Ba/F3 FGFR1/FGFR3 Selectivity [1] | IC50 [1] | Kd (FGFR3 (V555M)) | Kd (FGFR2) | Kd (FGFR1) | Kd (FGFR3) | Kd (FGFR4) | IC50 [2] | IC50 (FGFR1-BCR Ba/F3 cells) | IC50 [3] |
| --- | --- | --- | --- | --- | --- | --- | --- | --- | --- | --- |
| Cc1ncc(Cl)c([C@@H](C)Oc2ccc3[nH]nc(-c4cnn(C5CCN(C6CCC6)CC5)c4)c3c2)c1Cl [Example 95, 3-[1-(1-cyclobutyl-4-piperidyl)pyrazol-4-yl]-5-[(1R)-1-(3,5-dichloro-2-methyl-4-pyridyl)ethoxy]-1H-indazole] | 14 | 20 to 100 nM | 1 to 20 nM | 1 to 20 nM | 1 to 20 nM | 1 to 20 nM | 20 to 100 nM | 20 to 100 nM | > 300 nM | 100 to 300 nM |
| C[C@@H](Oc1ccc2[nH]nc(-c3cnn(C4CCN(C5COC5)CC4)c3)c2c1)c1c(Cl)cncc1Cl [Example 87, 5-[(1R)-1-(3,5-dichloro-4-pyridyl)ethoxy]-3-[1-[1-(oxetan-3-yl)-4-piperidyl]pyrazol-4-yl]-1H-indazole] | 17 | 1 to 20 nM | 1 to 20 nM | 1 to 20 nM | 1 to 20 nM | 1 to 20 nM | 20 to 100 nM | 1 to 20 nM | 20 to 100 nM | 20 to 100 nM |
| C[C@@H](Oc1ccc2[nH]nc(-c3ccc(N4CC5(CCS(=O)(=O)C5)C4)nc3)c2c1)c1c(Cl)cncc1Cl [Example 117, 2-[5-[5-[(1R)-1-(3,5-dichloro-4-pyridyl)ethoxy]-1H-indazol-3-yl]-2-pyridyl]-6λ^6-thia-2-azaspiro[3.4]octane 6,6-dioxide] | 15 | 1 to 20 nM | 1 to 20 nM | 1 to 20 nM | 1 to 20 nM | 1 to 20 nM | 1 to 20 nM | 1 to 20 nM | 20 to 100 nM | 20 to 100 nM |
| C[C@@H](Oc1ccc2[nH]nc(-c3ccc(N4CCNC(=O)CC4)nc3)c2c1)c1c(Cl)cncc1Cl [Example 30, 1-[5-[5-[(1R)-1-(3,5-dichloro-4-pyridyl)ethoxy]-1H-indazol-3-yl]-2-pyridyl]-1,4-diazepan-5-one] | 18 | 1 to 20 nM | 1 to 20 nM | 1 to 20 nM | 1 to 20 nM | 1 to 20 nM | 1 to 20 nM | 1 to 20 nM | 100 to 300 nM | 20 to 100 nM |
| CC(Oc1ccc2[nH]nc(-c3ccc(N4CC5(C4)CN(S(C)(=O)=O)C5)nc3)c2c1)c1c(Cl)ccnc1Cl (stereo not shown) [Example 109, 5-[1-(2,4-dichloro-3-pyridyl)ethoxy]-3-[6-(2-methylsulfonyl-2,6-diazaspiro[3.3]heptan-6-yl)-3-pyridyl]-1H-indazole] | 12 | 1 to 20 nM | 1 to 20 nM | 1 to 20 nM | 20 to 100 nM | 1 to 20 nM | 1 to 20 nM | 20 to 100 nM | 100 to 300 nM | 100 to 300 nM |
| C[C@@H](Oc1ccc2[nH]nc(-c3ccc(N4CCC5(CC4)CN(C)CC(=O)N5)nc3)c2c1)c1c(Cl)cncc1Cl [Example 97, 9-[5-[5-[(1R)-1-(3,5-dichloro-4-pyridyl)ethoxy]-1H-indazol-3-yl]-2-pyridyl]-4-methyl-1,4,9-triazaspiro[5.5]undecan-2-one] | 15 | 1 to 20 nM | 1 to 20 nM | 1 to 20 nM | 1 to 20 nM | 1 to 20 nM | 1 to 20 nM | 1 to 20 nM | 20 to 100 nM | 20 to 100 nM |
| C[C@@H](Oc1ccc2[nH]nc(-c3ccc(N4CCC5(CC4)CN(C)CC(=O)N5C)nc3)c2c1)c1c(Cl)cncc1Cl [Example 98, 9-[5-[5-[(1R)-1-(3,5-dichloro-4-pyridyl)ethoxy]-1H-indazol-3-yl]-2-pyridyl]-1,4-dimethyl-1,4,9-triazaspiro[5.5]undecan-2-one] | 24 | 1 to 20 nM | 1 to 20 nM | 1 to 20 nM | 1 to 20 nM | 1 to 20 nM | 1 to 20 nM | 1 to 20 nM | 20 to 100 nM | 20 to 100 nM |
